# According to patent US9187490B2, “Dimeric IAP inhibitors” (TetraLogic Pharmaceuticals Corporation, priority 2005, dated 2015):
# Like-named read-outs stand apart in the source and are kept apart here.
# Experiments:
# XIAP-BIR3 = target: T1, XIAP-BIR3 (Homo sapiens, UniProt P98170); experiment: XIAP BIR-3 fluorescence polarization binding assay; details: read-out: KD Range
# T1 construct: 40 nM of XIAP-BIR3 for 15 min at RT
# Experimental: Following incubation, the polarization values (mP) were measured on a Victor^2V using a 485 nm excitation filter and a 520 nm emission filter. IC50 values were determined from the plot using nonlinear least-squares analysis using GraphPad Prism.
# [1] = Half life after single intravenous dose in rat; details: in vivo, single IV dose 1 mg/kg, FIG. 2, read-out: terminal elimination half life (converted)
# Experimental: The IV dose for each Smac mimetic was 1 mg/kg.
# MDA-MB-231 cells [2] = experiment: Cell proliferation (MTT assay) with and without TRAIL; format: cell-based; details: MDA-MB-231, MTT, FIG. 4
# MDA-MB-231 cells [3] = experiment: Colony formation assay with and without TRAIL; format: cell-based; details: MDA-MB-231, in combination with TRAIL
# Experimental: The ability of cells to form viable colonies was analyzed by adding various concentrations of the compound in the presence and absence of 0.4 ng/ml of TRAIL. Briefly, cells are seeded at 100 cells per well in a 12 well format in 2 ml of growth medium. The medium is removed after twenty-four hours and replaced with Smac mimetics at various concentrations in growth medium with 1% DMSO. After 72 hours on test, the concentrations are removed and replaced with 2 ml. of growth medium. The plates are returned to the incubator for 7-10 days at which time the colonies have multiplied to at least 10 cells per colony which can be counted by eye. The plates are stained with a 0.01% crystal violet solution (wt:vol. in H2O) for thirty minutes. The plates are washed with tap water to remove any residual crystal violet, dried and the colonies are counted. Inhibition data were analyzed using the sigmoidal dose-response (variable slope) equation in GraphPad Prism (GraphPad Software, San Diego, Calif.). The 50% inhibitory concentration (EC50) was the drug concentration that decreased the […] by 50% relative to control samples without drug.
# T98G cells = experiment: Cytotoxicity synergy study with topoisomerase inhibitors; format: cell-based
# Source text: The highest amount of synergy is 50-60% more cell death than would be expected by adding together the cytotoxicity of each compound alone. […] The total synergistic volume was 457, with the greatest synergism being about 30%-40% more cell death than would be expected by adding together the individual Smac and topotecan cytotoxicities, between Entry 1 and a topoismerase inhibitor, such as topotecan.
# To further assess potential drug-drug interactions a matrix of the permutations of two-fold serial dilutions of each drug and a Snac mimetic were tested as well as the activity of each compound alone using a program called MacSynergy II (Prichard, M. N., K. R. Aseltine, and C. Shipman, Jr. 1993. MacSynergy II. User's manual. Univ. of Michigan, Ann Arbor). The synergy with paclitaxel and the Smac peptidomimetic Entry 122 in OVCAR3 cells was tested. The highest amount of synergy detected is 10-20% which indicates greater cell death than would be expected by adding together the cytotoxicity of either compound alone.
# SK-OV-3 cells = experiment: 72 hour MTT cell survival assay, SK-OV-3; format: cell-based; details: SK-OV-3 ovarian cancer cell line, FIG. 3
# Experimental: (§1) A 72 hour MTT assay, as previously described by Hansen, M. B., Nielsen, S. E., and Berg, K. ((1989) J. Immunol. Methods 119, 203-210) and incorporated herein by reference in its entirety, was used to differentiate between a specific versus non-specific effect on cell killing by Smac mimetics. Briefly, SK-OV-3 cells were seeded in 96-well plates in McCoy's medium containing 10% fetal bovine serum […] (20,000 per well) and incubated overnight at 37 C. […] 50 microliters of 5 mg/mL MTT reagent was then added to each well and the plates were incubated at 37° C. for 3 hours. At the end of the incubation period, 50 microliters of DMSO was added to each well to dissolve cells and the optical density (OD) of the wells was measured using a microplate reader (Victor^2 1420, Wallac, Finland) at 535 nm. Cell survival (CS) was calculated by the following equation CS=(OD treated well/mean OD control wells)×100%
# The EC50, defined as the drug concentration that results in 50% CS, was derived by calculating the point where the dose-response curve crosses the 50% CS point using GraphPad Prism.
# MRC-5 cells = experiment: 72 hour MTT assay, normal cell control MRC-5; format: cell-based; details: MRC-5 normal diploid cell line, FIG. 3
# Experimental: as §1
# Smac mimetic Entry 116 was tested using an ovarian cancer cell line, SK-OV-3, and MRC-5 cells were used as a normal cell control.
# [4] = with topotecan and camptothecin
# T1 sequence (P98170 241-356 limits assumed): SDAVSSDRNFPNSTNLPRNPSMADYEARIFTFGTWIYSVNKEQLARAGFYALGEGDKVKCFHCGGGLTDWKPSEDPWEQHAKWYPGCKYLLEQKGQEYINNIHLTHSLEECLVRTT
SMILES,"Kd (XIAP-BIR3; 5 nM AbuRPF-K(5-Fam)-NH2, 40 nM XIAP-BIR3, 15 min RT, pH 7.5) [µM]",half-life [1] [h],increase in the antiproliferative effect in combination with TRAIL (MDA-MB-231 cells [2]; in combination with TRAIL) [fold],"antiproliferative effect, Smac mimetic alone (MDA-MB-231 cells [2]; without TRAIL)",increase in the cell killing as detected by loss in colony formation (MDA-MB-231 cells [3]) [fold],total synergistic volume (T98G cells; with a topoisomerase inhibitor such as topotecan),"greatest synergism, more cell death than expected by adding the individual cytotoxicities (T98G cells; with topotecan)","highest amount of synergy, more cell death than expected by adding the cytotoxicity of each compound alone (T98G cells; [4])",synergy with topoisomerase inhibitors (T98G cells; [4]),Kd (XIAP-BIR3; Example 7 series) [µM],more effective at killing tumor cells than negative controls (SK-OV-3 cells),effect on normal (non-tumorigenic) cells (MRC-5 cells)
"CC(N)C(=O)NC(C(=O)N1CCCC1Cc1c(-c2ccc(-c3oc4ccccc4c3CC3CCCN3C(=O)C(NC(=O)C(C)N)C(C)C)cc2)oc2ccccc12)C(C)C (single isomer, unassigned) [Entry 1]",< 0.1,~6,1000,resistant,100,457,30%-40%,50-60%,act synergistically,–,–,–
CN[C@@H](C)C(=O)N[C@H](C(=O)N1C[C@@H](O)C[C@H]1Cc1c(-c2[nH]c3cc(F)ccc3c2C[C@@H]2C[C@H](O)CN2C(=O)[C@@H](NC(=O)[C@H](C)NC)[C@@H](C)OC)[nH]c2cc(F)ccc12)[C@@H](C)OC [Entry 116],–,–,–,–,–,–,–,–,–,< 0.1,"100,000 ×",unaffected
